The results in this text go back to patent publication US8420686B2, “Linked diimidazole antivirals” (Enanta Pharmaceuticals, Inc., priority 2009, dated 2013).

Some results are limits rather than exact numbers.

The subject of this assay is HCV 1b genotype replicon. The assay is described as follows: HCV genotype-1b replicon assay (qRT-PCR or luciferase). In kind it is cell-based. Conditions: Hepatitis C virus; HCV 1b replicon cell lines (SGR 11-7 or Huh-luc/neo-ET); qRT-PCR or luciferase readout; read-out: Genotype-1b replicon EC50 Range. The source says:
HCV replicon cell lines (kindly provided by R. Bartenschlager) isolated from colonies as described by Lohman et al. (Lohman et al. (1999) Science 285: 110-113, expressly incorporated by reference in its entirety) and used for all experiments. The HCV replicon has the nucleic acid sequence set forth in EMBL Accession No.: AJ242651, the coding sequence of which is from nucleotides 1801 to 8406.
The coding sequence of the published HCV replicon was synthesized and subsequently assembled in a modified plasmid pBR322 (Promega, Madison, Wis.) using standard molecular biology techniques. One replicon cell line (“SGR 11-7”) stably expresses HCV replicon RNA which consists of (i) the HCV 5′UTR fused to the first 12 amino acids of the capsid protein, (ii) the neomycin phosphotransferase gene (neo), (iii) the IRES from encephalomyocarditis virus (EMCV), and (iv) HCV NS2 to NS5B genes and the HCV 3′UTR. […]
EC50 values of single agent compounds and combinations were determined by HCV RNA detection using quantitative RT-PCR, according to the manufacturer's instructions, with a TaqMan® One-Step RT-PCR Master Mix Reagents Kit (Cat#AB 4309169, Applied Biosystems) on an ABI Model 7500 thermocycler. The TaqMan primers used for detecting and quantifying HCV RNA were obtained from Integrated DNA Technologies. HCV RNA was normalized to GAPDH RNA levels in drug-treated cells, which is detected and quantified using the Human GAPDH Endogenous Control Mix (Applied Biosystems, AB 4310884E). […] Chemical agent cytotoxicity is evaluated using an MTS assay according to the manufacturer's directions (Promega). […]
Turning to `CN(C)[C@@H](C(=O)N1CCC[C@H]1c1ncc(-c2ccc(Oc3cccc(-c4cnc([C@@H]5CCCN5C(=O)[C@@H](c5ccccc5)N(C)C)[nH]4)c3)cc2)[nH]1)c1ccccc1` [Example 1-f], the half-maximal effective concentration (EC50) was less than 1 nM.

For `CN(C)C(C(=O)N1CCC[C@H]1c1ncc(-c2ccc3cc4cc(-c5cnc([C@@H]6CCCN6C(=O)[C@@H](c6ccccc6)N(C)C)[nH]5)ccc4cc3c2)[nH]1)c1ccccc1` (stereo partly drawn) [Example 1-b], the EC50 is less than 1 nM.

For `CN(C)[C@@H](C(=O)N1CCC[C@H]1c1ncc(-c2ccc3c(c2)Cc2cc(-c4cnc([C@@H]5CCCN5C(=O)[C@@H](c5ccccc5)N(C)C)[nH]4)ccc2-3)[nH]1)c1ccccc1` [Example 2], the 50% effective concentration (EC50) is less than 1 nM.
